Key:
[1] = tested on: adult subjects with relapsing MS; test: Treatment-emergent adverse events (Safety Set); type: in vivo, human; conditions: for AESI effect on heart rate and rhythm (including hypotension) on Day 1: subjects with at least one AE, %: Day 1 (ponesimod dose 2 mg);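 for all read-outs here: safety Set comprises every randomized subject given one or more doses, analysed by the treatment actually received rather than the assigned arm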
Experimental: The Safety Set (SAF) included all randomized subjects who received at least one dose of study treatment. Subjects were analyzed based on actual treatment taken, not randomized treatment.

[2] = tested on: Patients (18-55 years) with RMS; test: Prespecified MRI-based endpoints and NEDA-3 status; type: in vivo, human
Experimental: Patients (18-55 years) with RMS (expanded disability status scale scores: 0-5.5) were randomized (1:1) to receive ponesimod (PON) 20 mg or teriflunomide (TER) 14 mg for 108 weeks. MRI assessments were: volume of T2 lesions; mean number of new gadolinium-enhancing (Gd+) T1 lesions and new/enlarging T2 lesions; and absence of active MRI lesions at week 108. NEDA-3 status (absence of confirmed relapse, Gd+T1 lesions and new/enlarging T2 lesions on annual MRIs, and 12-week confirmed disability accumulation) was evaluated from baseline to week 108.

[3] = tested on: adult subjects with relapsing MS; test: Time to first 12-week / 24-week confirmed disability accumulation (CDA) on EDSS; type: in vivo, human
Experimental: Secondary efficacy variables and testing strategy: Four secondary efficacy endpoints were analyzed as per the statistical testing strategy outlined in FIG. 1. • Change from baseline to Week 108 in fatigue-related symptoms as measured by the symptoms domain of the FSIQ-RMS patient-reported outcome [Fatigue] • Cumulative number of combined unique active lesions from baseline to Week 108 on brain MRI [CUALs] • Time to first 12-week confirmed disability accumulation (CDA) from baseline to EOS on Expanded Disability Status Scale (EDSS) [12-week CDA] • Time to first 24-week CDA from baseline to EOS on EDSS [24-week CDA]
(§1) A 12-week CDA is an increase of at least 1.5 in EDSS for subjects with a baseline EDSS score of 0.0 or an increase of at least 1.0 in EDSS for subjects with a baseline EDSS score of 1.0 to 5.0, or an increase of at least 0.5 in EDSS for subjects with a baseline EDSS score≥5.5 which is to be confirmed after 12 weeks.
All EDSS measurements (with or without relapse, at a scheduled or unscheduled visit) were used to determine the onset of disability accumulation. However, EDSS scores used for confirmation of disability accumulation were obtained at a scheduled visit (i.e., unscheduled visits cannot be used as confirmatory visits) outside any ongoing relapse. In this context, relapse duration is defined as period between start and end dates if available and limited to 90 days from onset if end date is not available or duration is longer than 90 days.
In order to confirm that the EDSS increase is persistent, all EDSS measurements between the onset and the 12-week EDSS confirmation (minus 7-day visit time-window) need to show an increase in EDSS, meeting the criteria for accumulation of disability as defined above.
as §1, with “24-week” for “12-week”, “24” for “12”
In order to confirm that the EDSS increase is persistent, all EDSS measurements between the onset and the 24-week EDSS confirmation (minus 7-day visit time-window) need to show an increase in EDSS, meeting the criteria for accumulation of disability as defined above.

[4] = tested on: adult subjects with relapsing MS; test: Premature treatment discontinuation; type: in vivo
Experimental: A total of 1468 subjects were screened. Of those, 1133 subjects were randomized (567 to ponesimod 20 mg and 566 to teriflunomide 14 mg) across 162 sites in 28 countries, and 1131 subjects received at least one dose of study drug. The disposition of subjects is summarized in Table 1 and a summary of reasons (primary reason) for treatment discontinuation are shown in Table 2. Overall treatment and study discontinuation were balanced across both treatment arms. A total of 6.5% and 2.5% of the subjects discontinued due to AEs or tolerability related reasons in ponesimod 20 mg and teriflunomide 14 mg, respectively, while 1.9% and 4.3% discontinued due to efficacy related reasons. There were 2 deaths reported during the study—both on teriflunomide 14 mg.

[5] = ponesimod 20 mg, teriflunomide 14 mg
[6] = treatment-emergent AESI, Safety Set
[7] = treatment-emergent AESI, Safety Set, listed as ponesimod
[8] = treatment-emergent, Safety Set, listed as ponesimod
[9] = ponesimod 20 mg vs teriflunomide 14 mg, not statistically significant

CCC/N=C1\S/C(=C\c2ccc(OC[C@H](O)CO)c(Cl)c2)C(=O)N1c1ccccc1C [Ponesimod, (R)-5-[3-chloro-4-(2,3-dihydroxy-propoxy)-benz[Z]ylidene]-2-([Z]-propylimino)-3-o-tolyl-thiazolidin-4-one]
AESI effect on heart rate and rhythm (including hypotension) on Day 1: subjects with at least one AE, % ([1]; Safety Set): (2.1) %
AESI effect on heart rate and rhythm (including hypotension) on Day 1: subjects with at least one AE, % ([1]; Safety Set, listed as ponesimod): 2.1%
Day 1 AESI PT Atrioventricular block first degree, % ([1]; Day 1, Safety Set): (0.5) %
Day 1 AESI PT Bradycardia, % ([1]; Day 1, Safety Set): (0.7) %
Day 1 AESI PT Bundle branch block left, % ([1]; Day 1, Safety Set): (0.2) %
Day 1 AESI PT Bundle branch block right, % ([1]; Day 1, Safety Set): (0.2) %
Day 1 AESI PT Defect conduction intraventricular, % ([1]; Day 1, Safety Set): (0.4) %
Day 1 AESI PT Sinus arrhythmia, % ([1]; Day 1, Safety Set): (0.2) %
Day 1 AESI PT Sinus bradycardia, % ([1]; Day 1, Safety Set): (0.2) %
TEAE ALT increased, subjects [1, 5]: 19.5%
TEAE headache, subjects [1, 5]: 11.5%
TEAE nasopharyngitis, subjects [1, 5]: 19.3%
TEAE upper respiratory tract infection, subjects [1, 5]: 10.6%
AESI category Effect on heart rate and rhythm (including aypotension), % [1, 6]: (5.1) %
AESI category Hepatobiliary disorders/Liver enzyme abnormality, % [1, 6]: (25.7) %
AESI category Herpetic infection, % [1, 6]: (4.8) %
AESI category Hypertension, % [1, 6]: (10.1) %
AESI category Macular edema, % [1, 6]: (1.1) %
AESI category Non-skin malignancy, % [1, 6]: (0.2) %
AESI category Pulmonary events, % [1, 6]: (8.0) %
AESI category Seizure, % [1, 6]: (1.4) %
AESI category Skin malignancy, % [1, 6]: (0.9) %
AESI category Hepatobiliary disorders/Liver enzyme abnormality, % [1, 7]: 25.7%
AESI category Hypertension, % [1, 7]: 10.1%
AESI category Pulmonary events, % [1, 7]: 8.0%
AESI category Infection, % ([1]; treatment-emergent AESI, only if reported as serious or severe, Safety Set): (1.6) %
AEs leading to premature discontinuation, SOC Blood and lymphatic system disorders, % ([1]; treatment-emergent, Safety Set): (0.5) %
AEs leading to premature discontinuation, SOC Cardiac disorders, % ([1]; treatment-emergent, Safety Set): (0.2) %
AEs leading to premature discontinuation, SOC Eye disorders, % ([1]; treatment-emergent, Safety Set): (0.9) %
AEs leading to premature discontinuation, SOC Gastrointestinal disorders, % ([1]; treatment-emergent, Safety Set): (0.7) %
AEs leading to premature discontinuation, SOC General disorders and administration site conditions, % ([1]; treatment-emergent, Safety Set): (0.5) %
AEs leading to premature discontinuation, SOC Hepatobiliary disorders, % ([1]; treatment-emergent, Safety Set): (0.5) %
AEs leading to premature discontinuation, SOC Investigations, % ([1]; treatment-emergent, Safety Set): (2.1) %
AEs leading to premature discontinuation, SOC Musculoskeletal and connective tissue disorders, % ([1]; treatment-emergent, Safety Set): (0.2) %
AEs leading to premature discontinuation, SOC Neoplasms benign, malignant and unspecified (incl cysts and polyps), % ([1]; treatment-emergent, Safety Set): (0.2) %
AEs leading to premature discontinuation, SOC Nervous system disorders, % ([1]; treatment-emergent, Safety Set): (0.4) %
AEs leading to premature discontinuation, SOC Pregnancy, puerperium and perinatal conditions, % ([1]; treatment-emergent, Safety Set): (0.5) %
AEs leading to premature discontinuation, SOC Psychiatric disorders, % ([1]; treatment-emergent, Safety Set): (0.2) %
AEs leading to premature discontinuation, SOC Respiratory, thoracic and mediastinal disorders, % ([1]; treatment-emergent, Safety Set): (1.2) %
AEs leading to premature discontinuation, SOC Skin and subcutaneous tissue disorders, % ([1]; treatment-emergent, Safety Set): (0.2) %
AEs leading to premature discontinuation, SOC Social circumstances, % ([1]; treatment-emergent, Safety Set): (0.4) %
AEs leading to premature discontinuation, SOC Vascular disorders, % ([1]; treatment-emergent, Safety Set): (0.5) %
Subjects with at least one AE leading to study drug discontinuation, % ([1]; treatment-emergent, Safety Set): (8.7) %
Subjects with at least one AE, % ([1]; treatment-emergent, Safety Set): (88.8) %
Subjects with at least one Drug-Related AE, % ([1]; treatment-emergent, Safety Set): (49.2) %
Subjects with at least one Serious AE, % ([1]; treatment-emergent, Safety Set): (8.7) %
Subjects with at least one Severe AE, % ([1]; treatment-emergent, Safety Set): (6.9) %
Subjects with at least one AE leading to study drug discontinuation, % [1, 8]: 8.7%
Subjects with at least one AE, % [1, 8]: 88.8%
Subjects with at least one Serious AE, % [1, 8]: 8.7%
Odds ratio for achieving NEDA-3, PON vs TER ([2]; At week 108): 1.70
Patients who achieved NEDA-3 ([2]; At week 108): 28.2%
Mean number of new Gd+T1 lesions per scan ([2]; baseline to week 108): 0.18
Mean numbers of new/enlarging T2 lesions per year ([2]; baseline to week 108): 1.40
Rate ratio, new Gd+T1 lesions per scan, PON vs TER ([2]; baseline to week 108): 0.42
Rate ratio, new/enlarging T2 lesions per year, PON vs TER ([2]; baseline to week 108): 0.44
Least square (LS) mean difference (PON-TER) in change from baseline in total volume of T2 lesions ([2]; baseline to week 108, PON 20 mg vs TER 14 mg): −399.2 mm^3
PON vs TER odds ratio for absence of new Gd+T1 lesions ([2]; week 108): 2.18
PON vs TER odds ratio for absence of new/enlarging 12 lesions ([2]; week 108): 1.71
Time to first 24-week CDA, hazard ratio ponesimod vs teriflunomide ([3]; Full Analysis Set, exploratory): 0.84
Time to first 12-week CDA, hazard ratio ponesimod vs teriflunomide ([3]; Full Analysis Set, stratified Cox regression): 0.83
Reduction of risk of 12-week CDA compared to teriflunomide [3, 9]: 17%
Reduction of risk of 24-week CDA compared to teriflunomide [3, 9]: 16%
Subjects with a 12-week CDA up to EOS [3, 5]: 10.1%
Subjects with a 24-week CDA up to EOS ([3]; ponesimod 20 mg, teriflunomide 14 mg, exploratory): 8.1%
Premature discontinuation: Physician decision, Adverse event, % ([4]; Safety Set): (5.1) %
Premature discontinuation: Subject decision, Tolerability related, % ([4]; Safety Set): (1.4) %
Subjects discontinued due to AEs or tolerability related reasons [4, 5]: 6.5%
